# In patent US20250082786A1, “FLUORESCENT MARKERS FOR NEUROFIBRILLAR TANGLES AND USES THEREOF” (FONDAZIONE ISTITUTO ITALIANO DI TECNOLOGIA, priority 2021, published 2025):
# How the values were obtained:
# [1] = tested on: intracellular TAU aggregates in human iPSC-derived cortical neurons; test: Probe staining of hiPSC-derived cortical neurons, colocalization with anti-T22 and anti-AT8 antibodies; assay type: cell-based; settings: 100 μM probe, 30 minutes at 37° C., cortical neurons at 30 days in vitro
# Description: FIG. 3. (A) Representative binarized fluorescence image showing human iPSC-derived cortical neurons at 30 days in vitro after incubation with BT1 (100 μM) for 30 minutes at 37° C. and staining with anti-T22 and anti-AT8 antibodies. • (B) Representative binarized fluorescence image showing human iPSC-derived cortical neurons at 30 days in vitro after incubation with TAU1 (100 μM) for 30 minutes at 37° C. and staining with anti-T22 and anti-AT8 antibodies. • (C) Fluorescence composite of the above representative images. […] (D) The probe specificity is calculated as the ratio between the antibody intensity within the area covered by BT1 or TAU1 out of the total antibody intensity (n=3), as determined using Image J. Images were acquired at the FV10i confocal microscope using a […] magnification. […]
# Fixed hiPSC-derived cortical neurons and RGCs were permeabilized with 0.2% Triton X-100 (Merck Life Science) in 1×TBS and incubated for 1 hour in blocking solution containing 1×TBS, 0.2% Triton X-100, and 5% goat serum (Merck Life Science). […] Fluorescence intensity per field of view was determined using the Software Image J.
# The ability of the BT1 probe to stain specifically intracellular TAU aggregates was determined as a function of the antibody fluorescent signal detected within the binarized probe signal.
# [2] = tested on: intracellular TAU aggregates in human iPSC-derived retinal ganglion cells; test: Probe staining of hiPSC-derived retinal ganglion cells, colocalization with anti-T22 and anti-AT8 antibodies; assay type: cell-based; settings: 100 μM probe, 30 minutes at 37° C., retinal ganglion cells at 30 days in vitro
# Description: FIG. 4. (A) Representative binarized fluorescence image showing human iPSC-derived retinal ganglion cells at 30 days in vitro after incubation with BT1 (100 μM) for 30 minutes at 37° C. and staining with anti-T22 and anti-AT8 antibodies. • (B) Representative binarized fluorescence image showing human iPSC-derived retinal ganglion cells at 30 days in vitro after incubation with TAU1 (100 μM) for 30 minutes at 37° C. and staining with anti-T22 and anti-AT8 antibodies. • (C) Fluorescence composite of the above representative images. The fluorescent image of BT1 was obtained using excitation at 520 nm with a 555/15 nm filter in detection; TAU1 was obtained using excitation at 470 nm with a 510/5 nm filter in detection. […] Cell nuclei were stained with DAPI. • (D) The probe specificity is calculated as the ratio between the antibody intensity within the area covered by BT1 or TAU1 out of the total antibody intensity (n=3), as determined using Image J. Images were acquired at the FV10i confocal microscope using a 60× magnification.
# The differentiation protocol was a revisited version of Sluch V. et al, 2017 with minor modifications. Human iPSCs were dissociated to single cells with 1× Accutase (Merck Life science) and plated on growth factor-reduced Matrigel coated plates at a density of 1000 cells/mm2 in mTeSR Plus supplemented with 10 μM Rock-inhibitor Y-27632 (Peprotech). […]
compound,measurement,setting,value
"CC1=CC(/C=C/c2ccc(/C=C/c3ccc(N(C)C)cc3)cc2)=[N+]2C1=Cc1cccn1[B-]2(F)F [BT1, 3-((E)-4-((E)-4-(dimethylamino)styryl)styryl)-5,5-difluoro-1-methyl-5H-dipyrrolo[1,2-c:2′,1′-f][1,3,2]diazaborinin-4-ium-5-uide]",Ability to detect phosphorylated (AT8-positive) aggregates,[1],higher ability to detect phosphorylated aggregates when compared to the TAU1 probe
same,Colocalization of probe signal with AT8 versus T22 antibody signal,[1],higher colocalization with AT8 signal in respect to T22
same,Ability to detect phosphorylated (AT8-positive) aggregates,[2],higher ability to detect phosphorylated aggregates when compared to the TAU1 probe
same,Colocalization of probe signal with AT8 versus T22 antibody signal,[2],higher colocalization with AT8 signal in respect to T22
